ChEMBL document CHEMBL6153030, “Design, synthesis, and biological evaluation of novel pleuromutilin derivatives with methicillin-resistant Staphylococcus aureus -targeting phenol linker groups” (Eur J Med Chem, 2025)
In brackets after ≈: the same amount, converted by molar mass. Activity calls are given as the source filed them. The calls are words filed in the database; no cut-off is given here.

How the values were obtained:
Staphylococcus aureus [1] = experiment: Antibacterial activity against Staphylococcus aureus ATCC 29213 assessed as inhibition of bacterial growth incubated for 96 hrs by broth microdilution method; type: functional
Staphylococcus aureus [2] = experiment: Antibacterial activity against methicillin-resistant Staphylococcus aureus ATCC43300 assessed as inhibition of bacterial growth incubated for 96 hrs by broth microdilution method; type: functional
Streptococcus pneumoniae = experiment: Antibacterial activity against Streptococcus pneumoniae ATCC 49619 assessed as inhibition of bacterial growth incubated for 96 hrs by broth microdilution method; type: functional
[3] = system: Staphylococcus epidermidis; experiment: Antibacterial activity against methicillin-resistant Staphylococcus epidermidis ATCC 51625 assessed as inhibition of bacterial growth incubated for 96 hrs by broth microdilution method; type: functional
Escherichia coli = experiment: Antibacterial activity against Escherichia coli ATCC 25922 assessed as inhibition of bacterial growth incubated for 96 hrs by broth microdilution method; type: functional
Staphylococcus aureus [4] = experiment: Antibacterial activity against methicillin-resistant Staphylococcus aureus ATCC43300 assessed as inhibition of bacterial growth measured on day 8; type: functional; settings: ATCC43300, 192 h, time 8 day
Staphylococcus aureus [5] = experiment: Antibacterial activity against methicillin-resistant Staphylococcus aureus ATCC43300 assessed as inhibition of bacterial growth measured on day 20; type: functional; settings: ATCC43300, 480 h, time 20 day
[6] = Toxicity against Zebrafish assessed as reduction of survival of embryos measured after 96 hrs; parameters: species or system Danio rerio; settings: in vivo
HEK293 = experiment: Cytotoxicity against HEK293 cells assessed as reduction in cell survival upto 120 ug/ml incubated for 6 hrs by CCK8 assay; type: toxicity, cell-based; settings: human, hek293, 6 h, dose < 120 µg/ml
HepG2 = experiment: Cytotoxicity against human HepG2 cells assessed as reduction in cell survival at 250 ug/ml incubated for 6 hrs by CCK8 assay; type: toxicity, cell-based; settings: hepg2, 6 h, dose 250 µg/ml
Staphylococcus aureus [7] = experiment: In vivo antibacterial activity against methicillin-resistant Staphylococcus aureus ATCC43300 infected in Kunming mouse assessed as increase in animal survival rate administered ip at 1 hr post-infection; type: functional; settings: ATCC43300, 1 h
Staphylococcus aureus [8] = experiment: Bactericidal activity against methicillin-resistant Staphylococcus aureus ATCC 43300 assessed as bacterial killing at 6XMIC incubated for 96 hrs in broth followed by culturing on agar plate for 12 hrs by time-kill kinetics analysis; type: functional; settings: time 108 hrs
Staphylococcus aureus [9] = experiment: Antibacterial activity against methicillin-resistant Staphylococcus aureus ATCC43300 assessed as inhibition of bacterial growth measured after 21 days; type: functional; settings: ATCC43300, 504 h, time 21 day
[10] = Toxicity against zebrafish embryo assessed as teratogenic effect at 128 ug/ml measured after 96 hrs by microscopic analysis; parameters: species or system Danio rerio; settings: in vivo, dose 128 µg/ml
[11] = molecular target: T1, 70S ribosome (Staphylococcus aureus) (UniProt Q2FW31+P0A0H0+Q2FW30+Q2FW19+Q2FYU5+Q2G2Q1+Q2FZ45+Q2FW15+Q2G111+Q2FW10+Q2FXY6+Q2FXZ7+Q2FZ25+Q2FW12+Q2FXK6+Q2FW23+Q2G113+P48940+Q2FW20+Q2FW39+Q2FYF9+Q2G0N9+P0A0F4+Q2FW38+Q2FW16+P0A0F8+Q2FW13+Q2FW33+Q2FW22+Q2FZ42+Q2G0P0+Q2FXQ1+Q2FXS8+Q2FW11+Q2FW08+Q2FW17+Q2FXT0+Q2FZ60+Q2FW14+P60430+P0A0G2+Q2FWD8+Q2FZF1+Q2FYU6+Q2FY22+Q2FUQ0+Q2FXQ0+Q2FW29+Q2FW06+Q2FW07+Q2FW18+Q2FW21+P48860+Q2G2T3); experiment: Inhibition of ribosomal peptidyl transferase centre in methicillin-resistant Staphylococcus aureus ATCC43300 assessed as inhibition of bacterial cell division at 4XMIC by scanning electron microscopy; type: functional
[12] = molecular target: T1, 70S ribosome (Staphylococcus aureus); experiment: Inhibition of ribosomal peptidyl transferase centre in methicillin-resistant Staphylococcus aureus ATCC43300 assessed as bacterial cell membrane damage at 4XMIC by scanning electron microscopy; type: functional
Staphylococcus aureus [13] = experiment: Bactericidal activity against methicillin-resistant Staphylococcus aureus ATCC43300 assessed as bacterial killing at 3XMIC incubated for 96 hrs in broth followed by culturing on agar plate for 4 hrs by time-kill kinetics analysis; type: functional; settings: time 100 hrs
Staphylococcus aureus [14] = experiment: Bactericidal activity against methicillin-resistant Staphylococcus aureus ATCC 43300 assessed as log reduction of bacterial colonies at 3XMIC incubated for 96 hrs in broth followed by culturing on agar plate for 4 hrs by time-kill kinetics analysis; type: functional; settings: time 100 hrs
Staphylococcus aureus [15] = experiment: Antibacterial activity against methicillin-resistant Staphylococcus aureus ATCC43300 assessed as inhibition of bacterial growth measured after 17 to 18 days; type: functional; settings: time 17-18 day
[16] = Toxicity against rabbit red blood cells assessed as hemolysis rate at 100 ug/ml by absorbance based analysis; type: cell-based, Oryctolagus cuniculus, Erythrocyte; settings: at 100 µg/mL, read-out: Activity
[17] = molecular target: T1, 70S ribosome (Staphylococcus aureus); experiment: Inhibition of ribosomal peptidyl transferase centre in methicillin-resistant Staphylococcus aureus ATCC43300 assessed as bacterial cell rupture at 4XMIC by scanning electron microscopy; type: functional
Staphylococcus aureus [18] = experiment: In vivo antibacterial activity against methicillin-resistant Staphylococcus aureus ATCC43300 infected in Kunming mouse assessed as decrease in lung lesions by measuring reduced congestion, hemorrhage and inflammatory cell infiltration at 40 mg/kg, ip administered at 1 hr post-infection; type: functional, organism-based
Staphylococcus aureus [19] = experiment: In vivo antibacterial activity against methicillin-resistant Staphylococcus aureus ATCC43300 infected in Kunming mouse assessed as decrease in bacterial load in lungs at 20 to 40 mg/kg, ip administered at 1 hr post-infection; type: functional, organism-based; settings: dose 20-40 mg/kg
Staphylococcus aureus [20] = experiment: In vivo antibacterial activity against methicillin-resistant Staphylococcus aureus ATCC43300 infected in Kunming mouse assessed as log reduction of bacterial load in lungs at 40 mg/kg, ip administered at 1 hr post-infection and measured within 48 hrs; type: functional

Compound | MIC (Staphylococcus aureus [1]) [µg/mL] | MIC (Staphylococcus aureus [2]) [µg/mL] | MIC (Streptococcus pneumoniae) [µg/mL] | MIC [3] [µg/mL] | MIC (Escherichia coli) [µg/mL] | LC50 at 96 h [6] [µg/mL] | Activity (HEK293) | Activity (HepG2) | ED50 (Staphylococcus aureus [7]) [mg/kg] | Activity (Staphylococcus aureus [8]) [%] | Activity [10] | inhibition [11] | further results
C=C[C@]1(C)C[C@@H](OC(=O)CSCCN(CC)CC)[C@]2(C)[C@H](C)CC[C@]3(CCC(=O)[C@H]32)[C@@H](C)[C@@H]1O [TIAMULIN] | 0.5 (≈ 1.01 µM) | 0.5 (≈ 1.01 µM) | 0.5 (≈ 1.01 µM) | 0.25 (≈ 0.506 µM) | > 64 | 24 (≈ 48.6 µM) | Toxic | Toxic | 11.4 |  |  |  | MIC (Staphylococcus aureus [4]): 8 µg/mL (≈ 16.2 µM); MIC (Staphylococcus aureus [5]): 32 µg/mL (≈ 64.8 µM)
C=C[C@]1(C)C[C@@H](OC(=O)CSc2cccc(OCC(=O)N3CCS(=O)(=O)CC3)c2)[C@]2(C)[C@H](C)CC[C@]3(CCC(=O)[C@H]32)[C@@H](C)[C@@H]1O | < 0.031 | < 0.031 | 0.125 (≈ 0.189 µM) | < 0.031 | > 64 | 149 (≈ 225 µM) | Toxic | Toxic |  | 99.99 | Non-toxic | Active | MIC (Staphylococcus aureus [9]): 4 µg/mL (≈ 6.04 µM); inhibition [12]: Active
C=C[C@]1(C)C[C@@H](OC(=O)CSc2ccccc2OCC(=O)N2CCS(=O)(=O)CC2)[C@]2(C)[C@H](C)CC[C@]3(CCC(=O)[C@H]32)[C@@H](C)[C@@H]1O | < 0.031 | < 0.031 | 0.125 (≈ 0.189 µM) | < 0.031 | > 64 | 165 (≈ 249 µM) | Toxic | Toxic | 6.48 | 99.99 | Non-toxic | Active | Activity (Staphylococcus aureus [13]): 99.9%; Activity (Staphylococcus aureus [14]): -3.154 log10CFU/ml; MIC (Staphylococcus aureus [15]): 8 µg/mL (≈ 12.1 µM); hemolysis at 100 ug/ml [16]: < 15%; inhibition [17]: Active; Activity (Staphylococcus aureus [18]): Active; Activity (Staphylococcus aureus [19]): Dose-dependent-effect; Activity (Staphylococcus aureus [20]): 3 log10CFU/ml
